{"source": "ChEMBL document CHEMBL4152386", "about": "“Discovery of a Novel Inhaled PI3Kδ Inhibitor for the Treatment of Respiratory Diseases” (J Med Chem, 2018)", "target": "T1, Phosphatidylinositol 4,5-bisphosphate 3-kinase catalytic subunit delta isoform (Mus musculus, UniProt O35904)", "T1 sequence (O35904 whole entry)": "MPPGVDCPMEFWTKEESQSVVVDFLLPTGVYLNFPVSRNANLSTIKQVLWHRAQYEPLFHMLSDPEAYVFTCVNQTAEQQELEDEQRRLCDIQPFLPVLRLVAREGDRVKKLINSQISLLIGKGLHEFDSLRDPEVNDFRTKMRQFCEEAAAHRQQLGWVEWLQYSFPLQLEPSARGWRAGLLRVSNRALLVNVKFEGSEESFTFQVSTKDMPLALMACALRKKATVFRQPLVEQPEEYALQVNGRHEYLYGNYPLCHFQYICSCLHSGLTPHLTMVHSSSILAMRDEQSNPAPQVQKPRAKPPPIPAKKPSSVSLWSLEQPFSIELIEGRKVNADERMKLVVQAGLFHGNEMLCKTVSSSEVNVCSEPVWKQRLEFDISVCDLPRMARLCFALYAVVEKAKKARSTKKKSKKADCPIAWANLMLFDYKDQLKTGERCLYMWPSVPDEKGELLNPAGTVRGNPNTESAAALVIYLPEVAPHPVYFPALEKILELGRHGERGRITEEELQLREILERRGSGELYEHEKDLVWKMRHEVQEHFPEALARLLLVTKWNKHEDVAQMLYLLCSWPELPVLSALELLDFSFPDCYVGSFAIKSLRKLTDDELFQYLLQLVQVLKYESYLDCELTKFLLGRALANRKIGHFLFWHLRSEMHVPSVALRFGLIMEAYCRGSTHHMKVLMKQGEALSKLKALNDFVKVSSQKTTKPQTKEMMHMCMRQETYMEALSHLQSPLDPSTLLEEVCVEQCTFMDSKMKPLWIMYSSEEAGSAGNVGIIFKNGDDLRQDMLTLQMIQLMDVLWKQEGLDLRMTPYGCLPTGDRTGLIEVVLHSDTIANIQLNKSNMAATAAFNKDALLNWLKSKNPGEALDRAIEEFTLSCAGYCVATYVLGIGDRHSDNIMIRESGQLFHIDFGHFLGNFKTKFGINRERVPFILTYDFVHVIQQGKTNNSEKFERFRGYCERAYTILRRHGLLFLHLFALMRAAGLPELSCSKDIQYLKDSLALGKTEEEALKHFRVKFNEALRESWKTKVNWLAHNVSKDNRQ", "experiment": "Inhibition of mouse ABD-truncated p110delta catalytic subunit (unknown origin) expressed in Sf9 cells using diC8-PIP2 substrate incubated for 1 hr by fluorescence polarization assay"}
{"smiles": "Cc1ccccc1-n1c(CN2CNc3c(N)ncnc32)nc2cccc(C)c2c1=O", "values": [{"measurement": "IC50", "result": 130, "unit": "nM"}]}
